Results: PMC6572996, “Silver(I) Complexes of the Pharmaceutical Agents Metronidazole and 4-Hydroxymethylpyridine: Comparison of Cytotoxic Profile for Potential Clinical Application” (Molecules, 2019)

Tests used:
[1] = tested on: Balb/c 3T3 cells; test: MTT assay (mitochondrial activity), Balb/c 3T3; format: cell-based, mouse; details: for Lowest concentration with significant (p ≤ 0.05) inhibition of mitochondrial activity (MTT): Balb/c 3T3, 72 h, vs negative control 0.1% DMSO; for IC50: Balb/c 3T3, 72 h exposure, mean (n = 3) ± SEM, read-out: Inhibitory concentration IC50, MTT
Description: (§1) Data obtained from the measurement of the optical density in these assays were transformed to percentages in relation to the control group, considered to be 100% for the MTT, NRU, and TPC assays and 0% for the LDH assay (Figure 1).
(§2) The human hepatoma cell line (HepG2) was purchased from the American Type Culture Collection (ATCC HB-8065). These cells were cultured in Minimum Essential Medium Eagle (MEME) (ATCC). The murine fibroblast cell line (Balb/c 3T3 clone A31) (gift from Department of Swine Diseases of the National Veterinary Research Institute in Pulawy) was cultured in Dulbecco’s Modified Eagle’s Medium (DMEM) (ATCC). The media were supplemented with 10% BCS (Balb/c 3T3), 10% FBS (HepG2), 1% L-glutamine, and 1% antibiotic solution. The cells were maintained in 75 cm^2 cell culture flasks (Nunc, Roskilde, Denmark) in a humidified incubator, NuAire (Plymouth, MN, USA) at 37 °C, in an atmosphere of 5% CO2. The medium was refreshed every two or three days and the cells were trypsinized by 0.25% trypsin–0.02% EDTA after reaching 70–80% confluence. Single cell suspensions were prepared and adjusted to a density of 2 × 10^5 cells/mL (HepG2) and 5 × 10^4 cells/mL (Balb/c 3T3). The cell suspension was transferred to 96-well plates (100 µL/well) and incubated for 24 h before the exposure to the study compounds.
(§3) The concentration ranges of compounds were chosen according to their solubility and their plasma level. Each compound was dissolved in DMSO. The final concentration of DMSO was 0.1% in the medium. The same final concentrations of the solvent and the 1% Trition-X 100 solution were used as the negative and positive controls, respectively. […] All compound solutions in the medium were freshly prepared and protected from light. […] The concentration range was selected on the basis of results from previous studies. Each concentration was tested in six replicates with three independent experiments. Cytotoxicity was assessed after 72 h of exposure of the cells to the compounds. The medium was not changed during the incubation time.
(§4) The metabolic activity of living cells was assessed by measuring the activity of dehydrogenases. After incubation of the cells with the compounds, a 10 μL portion of the MTT solution (5 mg/ml in PBS) was added to each well of the 96-well plates and incubated. After 3 h, the MTT solution was removed and the intracellular formazan crystals were dissolved in 100 µl DMSO. The plate was shaken for 15 min at room temperature and transferred to a microplate reader (LabSystems Multiskan RC, Thermo Fisher Scientific, Waltham, MA, USA) to measure the absorbance at 570 nm, using blanks as a reference. Cytotoxicity was expressed as a percentage of the negative control (0.1% DMSO).
(§5) The results of the tests were expressed as a mean ± SD. The experiments were performed in three independent repetitions. Statistical analysis was performed using GraphPad Prism 5 (San Diego, CA, USA). One-way analysis of variance (ANOVA) followed by Dunnett’s post-hoc test was applied. The 50% inhibition (cytotoxicity) concentrations (IC50) were derived from the dose–response curve plotted with the concentration of the compound (X-axis) vs. cell viability percent (Y-axis). The IC50 values were calculated by GraphPad Prism 5 software (San Diego, CA, USA). Statistical comparisons among IC50 values were performed by the analysis of variance (ANOVA) followed by the Tukey test. Values of p ≤ 0.05 were considered statistically significant.

[2] = tested on: HepG2 cells; test: Leakage LDH assay (cellular membrane integrity), HepG2; format: cell-based, human; details: for IC50: HepG2, 72 h exposure, mean (n = 3) ± SEM, read-out: Inhibitory concentration IC50, LDH
Description: as §1, §2, §3
(§6) The integrity of the plasma membrane was assessed using the test of lactate dehydrogenase (LDH) release, which was monitored using the commercially available Cytotoxicity Detection Kit (LDH) (Roche Diagnostics, Warsaw, Poland). The medium (100 µL/well) without cells was transferred into the corresponding wells of an optically clear 96-well flat bottom microplate and a 100 µl reaction mixture was added to each well. Then, the plates were incubated for 30 min at room temperature in darkness. After that time, a 50 µL/well 1 M HCl was added to stop the reaction. The absorbance was measured at 492 nm in a microplate reader (LabSystems Multiskan RC, Thermo Fisher Scientific, Waltham, MA, USA) using a blank as a reference.
as §5

[3] = tested on: HepG2 cells; test: TPC assay (total protein content), HepG2; format: cell-based, human; details: for Lowest concentration with significant (p ≤ 0.05) decrease of total protein content (TPC): HepG2, 72 h, vs negative control 0.1% DMSO; for IC50: HepG2, 72 h exposure, mean (n = 3) ± SEM, read-out: Inhibitory concentration IC50, TPC
Description: as §1, §2, §3
(§7) The assay was based upon staining total cellular protein (proliferation). After incubation, the medium containing the compound was removed and 100 µL of Coomassie Brilliant Blue R-250 dye were added to each well. The plate was shaken for 10 min. Then, the stain was removed and the cells were rinsed twice with 100 µL of washing solution (glacial acetic acid/ethanol/water). After that, a 100 µL portion of the desorbing solution (1 M potassium acetate) was added and plates were shaken again for 10 min. The absorbance was measured at 595 nm in a microplate reader (LabSystems Multiskan RC, Thermo Fisher Scientific, Waltham, MA, USA) using a blank as a reference. Cytotoxicity was expressed as a percentage of the negative control (0.1% DMSO).
as §5

[4] = tested on: murine melanoma (B16) cell line; parameters: method as in PMID 26828469; details: cited from earlier work
[5] = tested on: HepG2 cells; test: MTT assay (mitochondrial activity), HepG2; format: cell-based, human; details: for IC50: HepG2, 72 h exposure, mean (n = 3) ± SEM, read-out: Inhibitory concentration IC50, MTT
Description: as §1, §2, §3, §4, §5

[6] = tested on: Balb/c 3T3 cells; test: Leakage LDH assay (cellular membrane integrity), Balb/c 3T3; format: cell-based, mouse; details: for IC50: Balb/c 3T3, 72 h exposure, mean (n = 3) ± SEM, read-out: Inhibitory concentration IC50, LDH
Description: as §1, §2, §3, §6, §5

[7] = tested on: HepG2 cells; test: NRU assay (lysosomal activity), HepG2; format: cell-based, human; details: for Lowest concentration with significant (p ≤ 0.05) inhibition of lysosomal activity (NRU): HepG2, 72 h, vs negative control 0.1% DMSO; for IC50: HepG2, 72 h exposure, mean (n = 3) ± SEM, read-out: Inhibitory concentration IC50, NRU
Description: as §1, §2, §3
(§8) The assay, based on the staining of living cells by neutral red, was performed according to the protocol described by Borenfreund and Puerner. After incubation, the medium containing the compound was removed and the cells were washed with PBS. Then, a 100 µL/well of NR solution (50 µg/mL) was added for 3 h. After that time, the cells were washed with PBS. The dye from viable cells was released by extraction with a mixture of acetic acid, ethanol, and water. After 10 min of shaking, the absorbance of the dissolved NR was measured at 540 nm in a microplate reader (LabSystems Multiskan RC, Thermo Fisher Scientific, Waltham, MA, USA) using a blank as a reference. Cytotoxicity was expressed as a percentage of the negative control (0.1% DMSO).
as §5

[8] = tested on: HepG2 cells; parameters: method as in doi:10.2478/v10213-012-0102-5; details: cited from earlier work
[9] = tested on: Balb/c 3T3 cells; test: NRU assay (lysosomal activity), Balb/c 3T3; format: cell-based, mouse; details: for IC50: Balb/c 3T3, 72 h exposure, mean (n = 3) ± SEM, read-out: Inhibitory concentration IC50, NRU
Description: as §1, §2, §3, §8, §5

[10] = tested on: Balb/c 3T3 cells; test: TPC assay (total protein content), Balb/c 3T3; format: cell-based, mouse; details: for IC50: Balb/c 3T3, 72 h exposure, mean (n = 3) ± SEM, read-out: Inhibitory concentration IC50, TPC
Description: as §1, §2, §3, §7, §5

[11] = tested on: HeLa (cervical) cell line; parameters: method as in PMID 18615197; details: 72 h; cited from earlier work
[12] = HepG2, 72 h, vs negative control 0.1% DMSO
[13] = Balb/c 3T3, 72 h, vs negative control 0.1% DMSO

In the case of Cc1ncc([N+](=O)[O-])n1CCO [Metronidazole], the “Lowest concentration with significant (p ≤ 0.05) inhibition of mitochondrial activity (MTT)” value [1] is reported as 36 µM, the IC50 ([1]; Mus musculus, BALB/c3T3) is reported as over 146 µM and the IC50 ([2]; Homo sapiens) is reported as over 146 µM. The “Lowest concentration with significant (p ≤ 0.05) decrease of total protein content (TPC)” value [3] was 8.8 µM, the IC50 ([3]; Homo sapiens) was over 146 µM and the “Cytotoxicity in B16 cell line” value ([4]; same observation as in this study) was “poorly cytotoxic”. For the same molecule, the IC50 ([5]; Homo sapiens) was over 146 µM, the IC50 ([6]; Mus musculus, BALB/c3T3) was over 146 µM and the “Lowest concentration with significant (p ≤ 0.05) inhibition of lysosomal activity (NRU)” value [7] was 146 µM. The IC50 ([7]; Homo sapiens) was over 146 µM, the “Cytotoxicity in HepG2 cells” value [8] was “low cytotoxicity” and the IC50 ([9]; Mus musculus, BALB/c3T3) was over 146 µM. For the same molecule, the IC50 ([10]; Mus musculus, BALB/c3T3) was over 146 µM.

In the case of O=[N+]([O-])[O-].[Ag+] [Silver nitrate], the “Lowest concentration with significant (p ≤ 0.05) inhibition of mitochondrial activity (MTT)” value [1] is given as 2.2 µM, the IC50 [1] is given as 2.13 ± 0.88 µM and the IC50 [11] is given as 50 µM. The “Lowest concentration with significant (p ≤ 0.05) disintegration of the cellular membrane (LDH)” value [2, 12] was 4.4 µM, the IC50 [2] was 3.47 ± 0.24 µM and the “Lowest concentration with significant (p ≤ 0.05) decrease of total protein content (TPC)” value [3] was 8.8 µM. For the same molecule, the IC50 [3] was 60.3 ± 8.1 µM, the IC50 ([4]; 72 h incubation) was 9.74 µM and the “Lowest concentration with significant (p ≤ 0.05) inhibition of mitochondrial activity (MTT)” value [5, 12] was 4.4 µM. The IC50 [5] was 6.48 ± 1.6 µM, the “Lowest concentration with significant (p ≤ 0.05) disintegration of the cellular membrane (LDH)” value [6, 13] was 2.2 µM and the IC50 [6] was 3.12 ± 0.06 µM. For the same molecule, the “Lowest concentration with significant (p ≤ 0.05) inhibition of lysosomal activity (NRU)” value [7] was 4.4 µM, the IC50 [7] was 6.18 ± 1.41 µM and the “Lowest concentration with significant (p ≤ 0.05) inhibition of lysosomal activity (NRU)” value [9, 13] was 2.2 µM. For the same molecule, the IC50 [9] was 2.94 ± 1.06 µM, the “Lowest concentration with significant (p ≤ 0.05) decrease of total protein content (TPC)” value [10, 13] was 2.2 µM and the IC50 [10] was 2.59 ± 1.3 µM.
